# Laboratory results as given in patent US20220362167A1, “WATER-DISPERSIBLE CANNABIDIOL PRODUCT AND PREPARATION METHOD THEREFOR” (GUILIN LAYN NATURAL INGREDIENTS CORP., priority 2019, published 2022).
# Assay: Water solubility test of cannabidiol product
# Assay type: physicochemical
# Conditions: 50 mg in 500 mL distilled water, room temperature, stirred
# Method: Water Solubility Test of Cannabidiol Product
# Three parts of 500 mL of distilled water are taken. 50 mg of the cannabidiol product prepared in Example 1, Comparative Example 1 and Comparative Example 2 are added respectively at room temperature, and stirred, and recorded the time required for dissolution, with the cannabidiol as control.
smiles,measurement,value
C=C(C)[C@@H]1CCC(C)=C[C@H]1c1c(O)cc(CCCCC)cc1O [cannabidiol],appearance of the solution,precipitation and delamination
